≈ marks a conversion by molar mass, not a printed value.
How the values were obtained:
Format in all cases: functional
Escherichia coli = experiment: Antimicrobial activity against Escherichia coli MTCC 443 after 24 hr by serial broth dilution method; conditions: MTCC 443, 24 h
Aspergillus clavatus = experiment: Antimicrobial activity against Aspergillus clavatus MTCC 1323 after 72 hr by serial broth dilution method; conditions: MTCC 1323, 72 h
Aspergillus niger = experiment: Antimicrobial activity against Aspergillus niger MTCC 282 after 72 hr by serial broth dilution method; conditions: MTCC 282, 72 h
Pseudomonas aeruginosa = experiment: Antimicrobial activity against Pseudomonas aeruginosa MTCC 1688 after 24 hr by serial broth dilution method; conditions: MTCC 1688, 24 h
Candida albicans = experiment: Antimicrobial activity against Candida albicans MTCC 227 after 72 hr by serial broth dilution method; conditions: MTCC 227, 72 h
Staphylococcus aureus = experiment: Antimicrobial activity against Staphylococcus aureus MTCC 96 after 24 hr by serial broth dilution method; conditions: MTCC 96, 24 h
Streptococcus pyogenes = experiment: Antimicrobial activity against Streptococcus pyogenes MTCC 442 after 24 hr by serial broth dilution method; conditions: MTCC 442, 24 h

Cc1ccn2c(CN(C)C)c(-c3cccc(Cl)c3)nc2c1
MIC (Escherichia coli): 100 µg/mL (≈ 334 µM)
MIC (Aspergillus clavatus): 100 µg/mL (≈ 334 µM)
MIC (Aspergillus niger): 100 µg/mL (≈ 334 µM)
MIC (Pseudomonas aeruginosa): 50 µg/mL (≈ 167 µM)
MIC (Candida albicans): 250 µg/mL (≈ 834 µM)
MIC (Staphylococcus aureus): 100 µg/mL (≈ 334 µM)
MIC (Streptococcus pyogenes): 500 µg/mL (≈ 1670 µM)

CC1(C)S[C@@H]2[C@H](NC(=O)[C@H](N)c3ccccc3)C(=O)N2[C@H]1C(=O)O [AMPICILLIN]
MIC (Escherichia coli): 100 µg/mL (≈ 286 µM)
MIC (Pseudomonas aeruginosa): 100 µg/mL (≈ 286 µM)
MIC (Staphylococcus aureus): 250 µg/mL (≈ 715 µM)
MIC (Streptococcus pyogenes): 100 µg/mL (≈ 286 µM)

Cc1ccn2c(CN(C)C)c(-c3cc([N+](=O)[O-])c(O)cc3O)nc2c1
MIC (Escherichia coli): 500 µg/mL (≈ 1460 µM)
MIC (Aspergillus clavatus): 500 µg/mL (≈ 1460 µM)
MIC (Aspergillus niger): 500 µg/mL (≈ 1460 µM)
MIC (Pseudomonas aeruginosa): 250 µg/mL (≈ 730 µM)
MIC (Candida albicans): 500 µg/mL (≈ 1460 µM)
MIC (Staphylococcus aureus): 500 µg/mL (≈ 1460 µM)
MIC (Streptococcus pyogenes): 250 µg/mL (≈ 730 µM)

Cc1ccn2c(CN(C)C)c(-c3ccc(O)cc3O)nc2c1
MIC (Escherichia coli): 500 µg/mL (≈ 1680 µM)
MIC (Aspergillus clavatus): 1000 µg/mL (≈ 3360 µM)
MIC (Aspergillus niger): 1000 µg/mL (≈ 3360 µM)
MIC (Pseudomonas aeruginosa): 500 µg/mL (≈ 1680 µM)
MIC (Candida albicans): 1000 µg/mL (≈ 3360 µM)
MIC (Staphylococcus aureus): 500 µg/mL (≈ 1680 µM)
MIC (Streptococcus pyogenes): 250 µg/mL (≈ 841 µM)

Cc1ccn2c(CN(C)C)c(-c3ccccc3Br)nc2c1
MIC (Escherichia coli): 100 µg/mL (≈ 290 µM)
MIC (Aspergillus clavatus): 100 µg/mL (≈ 290 µM)
MIC (Aspergillus niger): 50 µg/mL (≈ 145 µM)
MIC (Pseudomonas aeruginosa): 100 µg/mL (≈ 290 µM)
MIC (Candida albicans): 500 µg/mL (≈ 1450 µM)
MIC (Staphylococcus aureus): 500 µg/mL (≈ 1450 µM)
MIC (Streptococcus pyogenes): 250 µg/mL (≈ 726 µM)

Cc1ccn2c(CN(C)C)c(-c3ccc(O)c([N+](=O)[O-])c3)nc2c1
MIC (Escherichia coli): 500 µg/mL (≈ 1530 µM)
MIC (Aspergillus clavatus): 1000 µg/mL (≈ 3060 µM)
MIC (Aspergillus niger): 1000 µg/mL (≈ 3060 µM)
MIC (Pseudomonas aeruginosa): 250 µg/mL (≈ 766 µM)
MIC (Candida albicans): 1000 µg/mL (≈ 3060 µM)
MIC (Staphylococcus aureus): 500 µg/mL (≈ 1530 µM)
MIC (Streptococcus pyogenes): 1000 µg/mL (≈ 3060 µM)

Cc1ccn2c(CN(C)C)c(-c3ccc(F)cc3F)nc2c1
MIC (Escherichia coli): 100 µg/mL (≈ 332 µM)
MIC (Aspergillus clavatus): 100 µg/mL (≈ 332 µM)
MIC (Aspergillus niger): 50 µg/mL (≈ 166 µM)
MIC (Pseudomonas aeruginosa): 50 µg/mL (≈ 166 µM)
MIC (Candida albicans): 500 µg/mL (≈ 1660 µM)
MIC (Staphylococcus aureus): 50 µg/mL (≈ 166 µM)
MIC (Streptococcus pyogenes): 250 µg/mL (≈ 830 µM)

Cc1ccn2c(CN(C)C)c(-c3c(F)cccc3F)nc2c1
MIC (Escherichia coli): 25 µg/mL (≈ 83 µM)
MIC (Aspergillus clavatus): 500 µg/mL (≈ 1660 µM)
MIC (Aspergillus niger): 100 µg/mL (≈ 332 µM)
MIC (Pseudomonas aeruginosa): 25 µg/mL (≈ 83 µM)
MIC (Candida albicans): 1000 µg/mL (≈ 3320 µM)
MIC (Staphylococcus aureus): 250 µg/mL (≈ 830 µM)
MIC (Streptococcus pyogenes): 100 µg/mL (≈ 332 µM)

Cc1ccn2c(CN(C)C)c(-c3ccccc3O)nc2c1
MIC (Escherichia coli): 500 µg/mL (≈ 1780 µM)
MIC (Aspergillus clavatus): 1000 µg/mL (≈ 3550 µM)
MIC (Aspergillus niger): 1000 µg/mL (≈ 3550 µM)
MIC (Pseudomonas aeruginosa): 500 µg/mL (≈ 1780 µM)
MIC (Candida albicans): 1000 µg/mL (≈ 3550 µM)
MIC (Staphylococcus aureus): 500 µg/mL (≈ 1780 µM)
MIC (Streptococcus pyogenes): 500 µg/mL (≈ 1780 µM)

Cc1ccn2c(CN(C)C)c(-c3ccc([N+](=O)[O-])cc3Br)nc2c1
MIC (Escherichia coli): 100 µg/mL (≈ 257 µM)
MIC (Aspergillus clavatus): 500 µg/mL (≈ 1280 µM)
MIC (Aspergillus niger): 500 µg/mL (≈ 1280 µM)
MIC (Pseudomonas aeruginosa): 100 µg/mL (≈ 257 µM)
MIC (Candida albicans): 1000 µg/mL (≈ 2570 µM)
MIC (Staphylococcus aureus): 500 µg/mL (≈ 1280 µM)
MIC (Streptococcus pyogenes): 100 µg/mL (≈ 257 µM)

Cc1ccn2c(CN(C)C)c(-c3ccc(F)c(Cl)c3)nc2c1
MIC (Escherichia coli): 50 µg/mL (≈ 157 µM)
MIC (Aspergillus clavatus): 1000 µg/mL (≈ 3150 µM)
MIC (Aspergillus niger): 1000 µg/mL (≈ 3150 µM)
MIC (Pseudomonas aeruginosa): 100 µg/mL (≈ 315 µM)
MIC (Candida albicans): 250 µg/mL (≈ 787 µM)
MIC (Staphylococcus aureus): 50 µg/mL (≈ 157 µM)
MIC (Streptococcus pyogenes): 50 µg/mL (≈ 157 µM)

Cc1ccn2c(CN(C)C)c(-c3cccc(Br)c3F)nc2c1
MIC (Escherichia coli): 500 µg/mL (≈ 1380 µM)
MIC (Aspergillus clavatus): 25 µg/mL (≈ 69 µM)
MIC (Aspergillus niger): 100 µg/mL (≈ 276 µM)
MIC (Pseudomonas aeruginosa): 500 µg/mL (≈ 1380 µM)
MIC (Candida albicans): 1000 µg/mL (≈ 2760 µM)
MIC (Staphylococcus aureus): 250 µg/mL (≈ 690 µM)
MIC (Streptococcus pyogenes): 25 µg/mL (≈ 69 µM)

Cc1ccn2c(CN(C)C)c(-c3cccc(F)c3F)nc2c1
MIC (Escherichia coli): 50 µg/mL (≈ 166 µM)
MIC (Aspergillus clavatus): 250 µg/mL (≈ 830 µM)
MIC (Aspergillus niger): 250 µg/mL (≈ 830 µM)
MIC (Pseudomonas aeruginosa): 250 µg/mL (≈ 830 µM)
MIC (Candida albicans): 125 µg/mL (≈ 415 µM)
MIC (Staphylococcus aureus): 500 µg/mL (≈ 1660 µM)
MIC (Streptococcus pyogenes): 500 µg/mL (≈ 1660 µM)

COC1=CC(=O)C[C@@H](C)[C@]12Oc1c(Cl)c(OC)cc(OC)c1C2=O [GRISEOFULVIN]
MIC (Aspergillus clavatus): 100 µg/mL (≈ 283 µM)
MIC (Aspergillus niger): 100 µg/mL (≈ 283 µM)
MIC (Candida albicans): 500 µg/mL (≈ 1420 µM)
